This note sets out measurements from US20240140957A1, “BRIDGED COMPOUNDS AS KRAS G12D INHIBITOR AND DEGRADER AND THE USE THEREOF” (BeiGene Switzerland GmbH, priority 2021, published 2024).

A value given as a limit tells only on which side of the number the result lay.

One assay has as its target GDP-loaded WT KRAS (Homo sapiens, UniProt P01116). Nature of the assay: KRAS WT Probe Displacement Assay. In kind it is binding. The conditions noted are these: WT KRAS 3 nM, biotinylated probe 1 60 nM; read-out: KRAS WT Probe Displacement Assay IC50.
In assay [1] the test system is pERK1/2 (THR202/TYR204) in AsPC-1 cells. The assay is described as follows: pERK Assay (HTRF) in AsPC-1 cells. In kind it is cell-based. The conditions noted are these: Homo sapiens, ASPC1, 2 h compound treatment. As for the experimental part:
AsPC-1 cell line was used in this study. […] 30000 cells per well were seeded into a 96-well plate and incubated overnight. […] After 2 h compound treatment, cells were lysed, and the pERK1/2 (THR202/TYR204) level in the cell lysates was detected by HTRF kit (Cisbio). In brief, a total of 16 μL of cell lysate from each well of a 96-well plate was transferred to a 384-well white assay plate. Lysate from each well was incubated with 2 μL of Eu3+-cryptate (donor) labeled anti-phospho-ERK1/2 and 2 μL of D2 (acceptor) labeled anti-phospho-ERK1/2 antibodies (Cisbio) overnight in dark at room temperature. When donor and acceptor are in close proximity, excitation of the donor with laser triggers a Fluorescence Resonance Energy Transfer (FRET) towards the acceptor, which in turn fluoresces at 655 nm wavelength. FRET signals were measured using a PHERAstar FSX reader (BMG Labtech).
(In general: TR-FRET usually uses a lanthanide donor and a delayed reading to cut background.)

A further assay addresses GDP-loaded KRAS G12D (Homo sapiens, UniProt P01116, G12D). Nature of the assay: KRAS G12D Probe Displacement Assay. In kind it is binding. The note with it: KRAS G12D 0.5 nM, biotinylated probe 2 4 nM; read-out: KRAS G12D Probe Displacement Assay IC50.
The next assay deals with KRAS G12D:SOS1 (Homo sapiens, UniProt P01116, G12D). Nature of the assay: KRAS G12D:SOS1 GDP TR-FRET assay. In kind it is binding. The note with it: GST-KRAS G12D 37.5 nM, GDP 10 μM, His-SOS1 18 nM.
KRAS G12D:SOS1, sequence (P01116 1-188 isoform P01116-2 G12D): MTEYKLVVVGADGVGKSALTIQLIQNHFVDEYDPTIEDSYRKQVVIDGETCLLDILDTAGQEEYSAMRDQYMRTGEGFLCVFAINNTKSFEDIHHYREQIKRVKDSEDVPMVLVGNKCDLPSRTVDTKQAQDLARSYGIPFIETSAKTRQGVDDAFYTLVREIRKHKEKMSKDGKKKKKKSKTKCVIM
The next assay deals with WT KRAS:SOS1 (Homo sapiens, UniProt P01116). The assay is described as follows: KRAS WT:SOS1 GDP TR-FRET assay. It is filed as binding. The conditions noted are these: GST-WT KRAS 37.5 nM, GDP 10 μM, His-SOS1 18 nM.
WT KRAS:SOS1, sequence (P01116 1-188 isoform P01116-2): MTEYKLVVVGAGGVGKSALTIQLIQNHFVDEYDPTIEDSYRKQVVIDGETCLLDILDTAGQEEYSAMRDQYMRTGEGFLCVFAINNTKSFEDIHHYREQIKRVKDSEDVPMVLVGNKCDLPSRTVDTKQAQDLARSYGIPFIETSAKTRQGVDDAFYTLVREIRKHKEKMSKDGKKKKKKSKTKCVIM

GDP-loaded KRAS G12D, sequence (P01116 1-188 isoform P01116-2 G12D): as the sequence (P01116 1-188 isoform P01116-2 G12D) above
GDP-loaded WT KRAS, sequence (P01116 1-188 isoform P01116-2): as the sequence (P01116 1-188 isoform P01116-2) above

The term IC50 denotes the concentration at which inhibition is half-maximal. As for `Cc1cc(N)nc(-c2c(Cl)cc3c(N4C5CNCC4COC5)nc(OC[C@@]45CCCN4C[C@H](F)C5)nc3c2F)c1C(F)(F)F` (stereo in doubt) [Example E88, 6-(4-(3-oxa-7,9-diazabicyclo[3.3.1]nonan-9-yl)-6-chloro-8-fluoro-2-((2-fluorotetrahydro-1H-pyrrolizin-7a(5H)-yl)methoxy)quinazolin-7-yl)-4-methyl-5-(trifluoromethyl)pyridin-2-amine], the IC50 worked out at 49 nM on GDP-loaded WT KRAS, 172 nM in assay [1] and 1.7 nM on GDP-loaded KRAS G12D.
For `Nc1nc2c(-c3c(Cl)cc4c(N5C6CCC5CNC6)nc(OC5CC6CCCCN6C5)nc4c3F)ccc(F)c2s1` (stereo not drawn) [Example E39, 4-(4-(3,8-diazabicyclo[3.2.1]octan-8-yl)-6-chloro-8-fluoro-2-((octahydroindolizin-2-yl)oxy)quinazolin-7-yl)-7-fluorobenzo[d]thiazol-2-amine], the concentration for half-maximal inhibition (IC50) in assay [1] is over 10000 nM; against KRAS G12D:SOS1 it was 54 nM; against WT KRAS:SOS1 it was 8160 nM.
As for `Nc1nc2c(-c3c(C(F)(F)F)cc4c(N5CC6CCC(C5)N6)nc(OC[C@@]56CCCN5C[C@H](F)C6)nc4c3F)ccc(F)c2s1` [Example E52, 4-(4-(3,8-diazabicyclo[3.2.1]octan-3-yl)-8-fluoro-2-(((2R,7aS)-2-fluorotetrahydro-1H-pyrrolizin-7a(5H)-yl)methoxy)-6-(trifluoromethyl)quinazolin-7-yl)-7-fluorobenzoI[d]thiazol-2-amine], the results for the IC50 (on GDP-loaded WT KRAS; in assay [1]; on GDP-loaded KRAS G12D) were 3 nM, 48 nM and 0.36 nM, respectively.
In the case of `Nc1nc2c(-c3c(Cl)cc4c(N5CC6CCC(C5)N6)nc(OCC56CCCN5CC(F)C6)nc4c3F)ccc(F)c2s1` (stereo not drawn) [Example E54, 4-(4-(3,8-diazabicyclo[3.2.1]octan-3-yl)-6-chloro-8-fluoro-2-((2-fluorotetrahydro-1H-pyrrolizin-7a(5H)-yl)methoxy)quinazolin-7-yl)-7-fluorobenzo[d]thiazol-2-amine], the results for the IC50 (at GDP-loaded WT KRAS; in assay [1]; on GDP-loaded KRAS G12D) were 7.5 nM, 205 nM and 0.35 nM, respectively.
Regarding `Nc1nc2c(-c3c(C(F)(F)F)cc4c(N5C6CNCC5COC6)nc(OC[C@@]56CCCN5C[C@H](F)C6)nc4c3F)ccc(F)c2s1` [Example E55, 4-(4-(3-oxa-7,9-diazabicyclo[3.3.1]nonan-9-yl)-8-fluoro-2-(((2R,7aS)-2-fluorotetrahydro-1H-pyrrolizin-7a(5H)-yl)methoxy)-6-(trifluoromethyl)quinazolin-7-yl)-7-fluorobenzo[d]thiazol-2-amine], the IC50 on GDP-loaded WT KRAS came out at 2.7 nM; in assay [1], 59 nM; on GDP-loaded KRAS G12D, 0.25 nM.
`COCCNC1C[C@H]2CC[C@@H]1N2c1nc(OC[C@@]23CCCN2C[C@H](F)C3)nc2c(F)c(-c3ccc(F)c4sc(N)nc34)c(C(F)(F)F)cc12` (stereo partly drawn) [Example E58, 7-fluoro-4-(8-fluoro-2-(((2R,7aS)-2-fluorotetrahydro-1H-pyrrolizin-7a(5H)-yl)methoxy)-4-((1S,4R)-2-((2-methoxyethyl)amino)-7-azabicyclo[2.2.1]heptan-7-yl)-6-(trifluoromethyl)quinazolin-7-yl)benzo[d]thiazol-2-amine]: the IC50 at GDP-loaded WT KRAS stood at 7.6 nM; in assay [1], 190 nM; on GDP-loaded KRAS G12D it was 0.5 nM.
In the case of `CNC1C[C@H]2CC[C@@H]1N2c1nc(OC[C@@H]2C[C@@H](F)CN2C)nc2c(F)c(-c3ccc(F)c4sc(N)nc34)c(Cl)cc12` (stereo partly drawn) [Example E59, 4-(6-chloro-8-fluoro-2-(((2S,4R)-4-fluoro-1-methylpyrrolidin-2-yl)methoxy)-4-((1S,4R)-2-(methylamino)-7-azabicyclo[2.2.1]heptan-7-yl)quinazolin-7-yl)-7-fluorobenzo[d]thiazol-2-amine], the IC50 at GDP-loaded WT KRAS turned out to be 390 nM; in assay [1], 1400 nM; at GDP-loaded KRAS G12D, 14 nM.
Consider `Nc1nc2c(-c3c(C(F)(F)F)cc4c(N5C6CCC5CNC6)nc(OC[C@@]56CCCN5C[C@H](F)C6)nc4c3F)ccc(F)c2s1` [Example E60, 4-(4-(3,8-diazabicyclo[3.2.1]octan-8-yl)-8-fluoro-2-(((2R,7aS)-2-fluorotetrahydro-1H-pyrrolizin-7a(5H)-yl)methoxy)-6-(trifluoromethyl)quinazolin-7-yl)-7-fluorobenzo[d]thiazol-2-amine], for which the results for the IC50 (at GDP-loaded WT KRAS; in assay [1]; at GDP-loaded KRAS G12D) were 2.6 nM, 34 nM and 0.27 nM, respectively.
In the case of `CN1CCCC1(C)COc1nc(N2CC3CCC(C2)N3)c2cc(Cl)c(-c3ccc(F)c4sc(N)nc34)c(F)c2n1` (stereo not drawn) [Example E61, 4-(4-(3,8-diazabicyclo [3.2.1]octan-3-yl)-6-chloro-2-((1,2-dimethylpyrrolidin-2-yl)methoxy)-8-fluoroquinazolin-7-yl)-7-fluorobenzo[d]thiazol-2-amine], the IC50 was 240 nM at GDP-loaded WT KRAS, 2000 nM in assay [1] and 2.6 nM on GDP-loaded KRAS G12D.
Turning to `CC1(N2CCCCC2)CN(c2nc(N3CC4CCC(C3)N4)c3cc(Cl)c(-c4ccc(F)c5sc(N)nc45)c(F)c3n2)C1` [Example E62, 4-(4-(3,8-diazabicyclo[3.2.1]octan-3-yl)-6-chloro-8-fluoro-2-(3-methyl-3-(piperidin-1-yl)azetidin-1-yl)quinazolin-7-yl)-7-fluorobenzo[d]thiazol-2-amine], the IC50 on GDP-loaded WT KRAS worked out at 660 nM; in assay [1] it was 740 nM; at GDP-loaded KRAS G12D it was 9.6 nM.
As to `Nc1nc2c(-c3c(Cl)cc4c(N5CC6CCC(C5)N6)nc(OC[C@@]56CCCN5C[C@H](F)C6)nc4c3Cl)ccc(F)c2s1` [Example E63, 4-(4-(3,8-diazabicyclo[3.2.1]octan-3-yl)-6,8-dichloro-2-(((2R,7aS)-2-fluorotetrahydro-1H-pyrrolizin-7a(5H)-yl)methoxy)quinazolin-7-yl)-7-fluorobenzo[d]thiazol-2-amine], the results for the IC50 (on GDP-loaded WT KRAS; in assay [1]; at GDP-loaded KRAS G12D) were 8.5 nM, 93 nM and 0.22 nM, respectively.
The matching figures for `Nc1nc2c(-c3c(C(F)(F)F)cc4c(N5CC6CCC(C5)N6)nc(OC[C@@]56CCCN5C[C@H](F)C6)nc4c3Cl)ccc(F)c2s1` [Example E64, 4-(4-(3,8-diazabicyclo[3.2.1]octan-3-yl)-8-chloro-2-(((2R,7aS)-2-fluorotetrahydro-1H-pyrrolizin-7a(5H)-yl)methoxy)-6-(trifluoromethyl)quinazolin-7-yl)-7-fluorobenzoI[d]thiazol-2-amine]: 5.1 nM, 38 nM and 0.33 nM.
In the same order, the values of `Nc1cc(Cl)c(C(F)(F)F)c(-c2c(Cl)cc3c(N4CC5CCC(C4)N5)nc(OC[C@@]45CCCN4C[C@H](F)C5)nc3c2F)n1` [Example E65, 6-(4-(3,8-diazabicyclo[3.2.1]octan-3-yl)-6-chloro-8-fluoro-2-(((2R,7aS)-2-fluorotetrahydro-1H-pyrrolizin-7a(5H)-yl)methoxy)quinazolin-7-yl)-4-chloro-5-(trifluoromethyl)pyridin-2-amine] are 20.5 nM, 65 nM and 0.44 nM.
Turning to `C=Cc1cc2c(N3CC4CCC(C3)N4)nc(OC[C@@H]3C[C@@H](F)CN3C)nc2c(F)c1-c1ccc(F)c2sc(N)nc12` [Example E66, 4-(4-((3,8-diazabicyclo[3.2.1]octan-3-yl)-8-fluoro-2-(((2S,4R)-4-fluoro-1-methylpyrrolidin-)-yl)methoxy)-6-vinylquinazolin-7-yl)-7-fluorobenzo[d]thiazol-2-amine], the IC50 at GDP-loaded WT KRAS was determined as 72 nM; in assay [1] it was 480 nM; at GDP-loaded KRAS G12D it was 2.2 nM.
For `CCc1cc2c(N3CC4CCC(C3)N4)nc(OC[C@@]34CCCN3C[C@H](F)C4)nc2c(F)c1-c1ccc(F)c2sc(N)nc12` [Example E67, 4-(4-(3,8-diazabicyclo[3.2.1]octan-3-yl)-6-ethyl-8-fluoro-2-(((2R,7aS)-2-fluorotetrahydro-1H-pyrrolizin-7a(5H)-yl)methoxy)quinazolin-7-yl)-7-fluorobenzo[d]thiazol-2-amine], the IC50 came to 9.9 nM at GDP-loaded WT KRAS, 95 nM in assay [1] and 0.45 nM on GDP-loaded KRAS G12D.
`CN(C)CC1(COc2nc(N3CC4CCC(C3)N4)c3cc(Cl)c(-c4ccc(F)c5sc(N)nc45)c(F)c3n2)CCC1` [Example E68, 4-(4-(3,8-diazabicyclo[3.2.1]octan-3-yl)-6-chloro-2-((1-((dimethylamino)-methyl)cyclobutyl)methoxy)-8-fluoroquinazolin-7-yl)-7-fluorobenzo[d]thiazol-2-amine]: the IC50 stood at 45 nM at GDP-loaded WT KRAS, 590 nM in assay [1] and 0.58 nM on GDP-loaded KRAS G12D.
